In patent US20110245284A1, “Alkoxy- and Alkylthio-Substituted Anilinopyrimidines” (Bayer CropScience AG, priority 2008, published 2011):
Like-named read-outs stand apart in the source and are kept apart here.

Key:
Venturia inaequalis = experiment: Venturia test (apple) / protective; assay type: in vivo; settings: 240 h, active compound concentration 100 ppm, evaluation 10 days after inoculation, read-out: efficacy
Experimental: After the spray coating has dried on, the plants are inoculated with an aqueous conidia suspension of the apple scab pathogen Venturia inaequalis and then remain for 1 day in an incubation cabinet at about 20° C. and 100% relative atmospheric humidity.

Alternaria solani = experiment: Alternaria test (tomato) / protective; assay type: in vivo; settings: 72 h, active compound concentration 100 ppm, evaluation 3 days after inoculation, read-out: efficacy
Experimental: The plants are then placed in an incubation cabinet at about 20° C. and 100% relative atmospheric humidity.

Sphaerotheca fuliginea = experiment: Sphaerotheca test (cucumber) / protective; assay type: in vivo; settings: Podosphaera fuliginea, 168 h, active compound concentration 500 ppm, evaluation 7 days after inoculation, read-out: efficacy
Experimental: The plants are subsequently placed in a greenhouse at 70% relative atmospheric humidity and a temperature of 23° C.

Leptosphaeria nodorum = Leptosphaeria nodorum test (wheat) / protective; assay type: in vivo; settings: Parastagonospora nodorum, active compound concentration 500 ppm, evaluation 7-9 days after inoculation, read-out: efficacy
Experimental: Thereafter, the plants are placed in a greenhouse at 90% relative atmospheric humidity and a temperature of 22° C.

Pyrenophora teres = Pyrenophora teres test (barley) / protective; assay type: in vivo; settings: 192 h, active compound concentration 500 ppm, evaluation 8 days after inoculation, read-out: efficacy
Experimental: After the spray coating has dried on, the plants are sprayed with a spore suspension of Pyrenophora teres. The plants remain in an incubation cabinet for 48 hours at 20° C. and 100% relative atmospheric humidity.

Pyricularia oryzae = experiment: whole plant or invertebrate; assay type: in vivo; settings: 120 h, read-out: efficacy
Fusarium graminearum = experiment: microbe, parasite or virus in culture; assay type: cell-based; settings: 168 h, read-out: DON/AcDON-inhibitory activity
[1] = logP by LC-MS on reversed-phase columns (C 18), method [b], acidic range pH 2.7; assay type: physicochemical; settings: pH 2.7, log p
Experimental: (§1) The logP values were determined in accordance with EEC Directive 79/831 Annex V.A8 by HPLC (High Performance Liquid Chromatography) on reversed-phase columns (C 18), using the methods below:
[b] The LC-MS determination in the acidic range is carried out at pH 2.7 using the mobile phases 0.1% aqueous formic acid and acetonitrile (contains 0.1% formic acid), linear gradient from 10% acetonitrile to 95% acetonitrile.

[2] = logP by LC-MS on reversed-phase columns (C 18), method [c], neutral range pH 7.8; assay type: physicochemical; settings: pH 7.8
Experimental: as §1
[c] The LC-MS determination in the neutral range is carried out at pH 7.8 using the mobile phases 0.001 molar aqueous ammonium bicarbonate solution and acetonitrile, linear gradient from 10% acetonitrile to 95% acetonitrile.

Rhizoctonia solani = experiment: Rhizoctonia test (rice) / protective; assay type: in vivo; settings: 96 h, active compound concentration 250 ppm, evaluation 4 days after inoculation, read-out: efficacy
Fusarium proliferatum = experiment: Production of fumonisin FB1 by Fusarium proliferatum (microtitre plates; FB1 by HPLC-MS/MS, growth by OD620); assay type: cell-based; settings: Fusarium proliferatum, 144 h
Cochliobolus miyabeanus = experiment: Cochliobolus test (rice) / protective; settings: Bipolaris oryzae, in Oryza sativa, 96 h, read-out: efficacy
Experimental: Cochliobolus Test (Rice)/Protective • Solvent: 28.5 parts by weight of acetone • Emulsifier: 1.5 parts by weight of alkylaryl polyglycol ether
1 day after the treatment, the plants are inoculated with an aqueous spore suspension of Cochliobolus miyabeanus. The plants are then placed in a greenhouse at 100% relative atmospheric humidity and 25° C.
Evaluation is carried out 4 days after the inoculation.

[3] = logP by HPLC on reversed-phase columns (C 18), method [a], acidic range pH 2.3; assay type: physicochemical; settings: pH 2.94, logP (pH2.94)
[4] = as above; assay type: physicochemical; settings: pH 2.3, logP (pH2.3)
Experimental: as §1
[a] The determination is carried out in the acidic range at pH 2.3 using the mobile phases 0.1% aqueous phosphoric acid and acetonitrile, linear gradient from 10% acetonitrile to 95% acetonitrile.

[5] = growth, OD620 at the beginning and after 6 days, read-out: pI50 growth (converted)

## COCc1cccc(Nc2ncc(Cl)c(NCCF)n2)c1 [Example 138]
Venturia inaequalis
  pest or weed control at 100 ppm: ≥ 70%
Alternaria solani
  pest or weed control at 100 ppm: ≥ 70%
Sphaerotheca fuliginea
  pest or weed control at 500 ppm: ≥ 70%
Leptosphaeria nodorum
  pest or weed control at 500 ppm: ≥ 70%
Pyrenophora teres
  pest or weed control at 500 ppm: ≥ 70%
Pyricularia oryzae
  pest or weed control at 250 ppm: ≥ 80%
Fusarium graminearum
  inhibition at 50 µM: > 80%
[1]
  chromatographic logP: 1.48
[2]
  chromatographic logP: 2.57

## COCCc1cccc(Nc2ncc(Cl)c(NC3CC3)n2)c1 [Example 60]
Venturia inaequalis
  pest or weed control at 100 ppm: ≥ 70%
Alternaria solani
  pest or weed control at 100 ppm: ≥ 70%
Sphaerotheca fuliginea
  pest or weed control at 500 ppm: ≥ 70%
Leptosphaeria nodorum
  pest or weed control at 500 ppm: ≥ 70%
Pyrenophora teres
  pest or weed control at 500 ppm: ≥ 70%
Pyricularia oryzae
  pest or weed control at 250 ppm: ≥ 80%
Rhizoctonia solani
  pest or weed control at 250 ppm: ≥ 80%
Fusarium proliferatum; read-out: pI50 Fum
  IC50: 0.631 µM
Fusarium proliferatum; [5]
  IC50: 1.58 µM
[1]
  chromatographic logP: 2.41
Cochliobolus miyabeanus
  pest or weed control at 250 ppm: ≥ 80%

## CC(O)c1cccc(Nc2ncc(Cl)c(NC3CC3)n2)c1 (stereo not drawn) [Ic-IV-1, 1-(3-{[5-Chloro-4-(cyclopropylamino)pyrimidin-2-yl]amino}phenyl)ethanol]
[3]
  chromatographic logP: 1.25

## CCC(SC)c1cccc(Nc2ncc(C(F)(F)F)c(NC3CC3)n2)c1 (stereo not drawn) [Example 62]
Venturia inaequalis
  pest or weed control at 100 ppm: ≥ 70%
Alternaria solani
  pest or weed control at 100 ppm: ≥ 70%
Sphaerotheca fuliginea
  pest or weed control at 500 ppm: ≥ 70%
Leptosphaeria nodorum
  pest or weed control at 500 ppm: ≥ 70%
Pyricularia oryzae
  pest or weed control at 250 ppm: ≥ 80%
Rhizoctonia solani
  pest or weed control at 250 ppm: ≥ 80%
Fusarium proliferatum; read-out: pI50 Fum
  IC50: 15.8 µM
Fusarium proliferatum; [5]
  IC50: > 50.1 µM
[1]
  chromatographic logP: 4.23
Cochliobolus miyabeanus
  pest or weed control at 250 ppm: ≥ 80%

## COCC(O)c1cccc(Nc2ncc(C(F)(F)F)c(NC3CC3)n2)c1 (stereo not drawn) [Example 195]
Sphaerotheca fuliginea
  pest or weed control at 500 ppm: ≥ 70%
Leptosphaeria nodorum
  pest or weed control at 500 ppm: ≥ 70%
Pyrenophora teres
  pest or weed control at 500 ppm: ≥ 70%
Pyricularia oryzae
  pest or weed control at 250 ppm: ≥ 80%
Rhizoctonia solani
  pest or weed control at 250 ppm: ≥ 80%
Fusarium graminearum
  inhibition at 50 µM: > 80%
[1]
  chromatographic logP: 1.97
[2]
  chromatographic logP: 2.64

## COC(C)c1cccc(Nc2ncc(Br)c(NC3CCC3)n2)c1 (stereo not drawn) [Example 20]
Venturia inaequalis
  pest or weed control at 100 ppm: ≥ 70%
Alternaria solani
  pest or weed control at 100 ppm: ≥ 70%
Leptosphaeria nodorum
  pest or weed control at 500 ppm: ≥ 70%
Pyrenophora teres
  pest or weed control at 500 ppm: ≥ 70%
Pyricularia oryzae
  pest or weed control at 250 ppm: ≥ 80%
Rhizoctonia solani
  pest or weed control at 250 ppm: ≥ 80%
Fusarium proliferatum; read-out: pI50 Fum
  IC50: 0.794 µM
Fusarium proliferatum; [5]
  IC50: 3.98 µM
[1]
  chromatographic logP: 2.46
Cochliobolus miyabeanus
  pest or weed control at 250 ppm: ≥ 80%

## COCc1cccc(Nc2ncc(Cl)c(N(C)C3CC3)n2)c1 [Example 58]
Venturia inaequalis
  pest or weed control at 100 ppm: ≥ 70%
Sphaerotheca fuliginea
  pest or weed control at 500 ppm: ≥ 70%
Leptosphaeria nodorum
  pest or weed control at 500 ppm: ≥ 70%
Pyrenophora teres
  pest or weed control at 500 ppm: ≥ 70%
Fusarium graminearum
  inhibition at 50 µM: > 80%
[1]
  chromatographic logP: 2.7
[2]
  chromatographic logP: 3.76

## CC[S+]([O-])c1cccc(Nc2ncc(Cl)c(NC3CCC3)n2)c1 (stereo not drawn) [Example 28, 5-Chloro-N^4-cyclobutyl-N^2-[3-(ethylsulphinyl)phenyl]pyrimidine-2,4-diamine]
[4]
  chromatographic logP: 1.76
Venturia inaequalis
  pest or weed control at 100 ppm: ≥ 70%
Alternaria solani
  pest or weed control at 100 ppm: ≥ 70%
Sphaerotheca fuliginea
  pest or weed control at 500 ppm: ≥ 70%
Leptosphaeria nodorum
  pest or weed control at 500 ppm: ≥ 70%
Pyrenophora teres
  pest or weed control at 500 ppm: ≥ 70%
Pyricularia oryzae
  pest or weed control at 250 ppm: ≥ 80%
Rhizoctonia solani
  pest or weed control at 250 ppm: ≥ 80%
Fusarium proliferatum; read-out: pI50 Fum
  IC50: 3.98 µM
Fusarium proliferatum; [5]
  IC50: 20 µM
[1]
  chromatographic logP: 1.76
Cochliobolus miyabeanus
  pest or weed control at 250 ppm: ≥ 80%

## CCC[S+]([O-])c1cccc(Nc2ncc(C(F)(F)F)c(Cl)n2)c1 (stereo not drawn) [Xb-1, 4-Chloro-N-[3-(propylsulphinyl)phenyl]-5-(trifluoromethyl)pyrimidin-2-amine]
[3]
  chromatographic logP: 1.76

## CCC(SC)c1cccc(Nc2ncc(Cl)c(NC3CC3)n2)c1 (stereo not drawn) [Example 61, 5-Chloro-N^4-cyclopropyl-N^2-{3-[1-(methylsulphanyl)propyl]phenyl}pyrimidine-2,4-diamine]
[4]
  chromatographic logP: 2.59
Venturia inaequalis
  pest or weed control at 100 ppm: ≥ 70%
Alternaria solani
  pest or weed control at 100 ppm: ≥ 70%
Sphaerotheca fuliginea
  pest or weed control at 500 ppm: ≥ 70%
Leptosphaeria nodorum
  pest or weed control at 500 ppm: ≥ 70%
Pyricularia oryzae
  pest or weed control at 250 ppm: ≥ 80%
Rhizoctonia solani
  pest or weed control at 250 ppm: ≥ 80%
Fusarium graminearum
  inhibition at 50 µM: > 80%
[1]
  chromatographic logP: 2.94

## COC(C)(C)c1cccc(Nc2ncc(Cl)c(NC3CC3)n2)c1 [Example 59]
Venturia inaequalis
  pest or weed control at 100 ppm: ≥ 70%
Alternaria solani
  pest or weed control at 100 ppm: ≥ 70%
Sphaerotheca fuliginea
  pest or weed control at 500 ppm: ≥ 70%
Leptosphaeria nodorum
  pest or weed control at 500 ppm: ≥ 70%
Pyrenophora teres
  pest or weed control at 500 ppm: ≥ 70%
Pyricularia oryzae
  pest or weed control at 250 ppm: ≥ 80%
Rhizoctonia solani
  pest or weed control at 250 ppm: ≥ 80%
Fusarium proliferatum; read-out: pI50 Fum
  IC50: 0.501 µM
Fusarium proliferatum; [5]
  IC50: 3.16 µM
[1]
  chromatographic logP: 2.16
[2]
  chromatographic logP: 3.5
Cochliobolus miyabeanus
  pest or weed control at 250 ppm: ≥ 80%
